Measurements: ChEMBL document CHEMBL5728847, “Cyanoindoline derivatives as NIK inhibitors” (2021)

What follows are compounds tested against Mitogen-activated protein kinase kinase kinase 14 (Homo sapiens, UniProt Q99558) (assay: Inhibition of Auto-Phosphorylation of Recombinant Human NF-kappaB-Inducing Kinase (NIK1/AP3K14) Activity: NIK/MAP3K14 auto-phosphorylation activity was measured using the AlphaScreen® (αscreen) format (Perkin Elmer). All compounds tested were dissolved in dimethyl sulfoxide (DMSO) and further dilutions were made in assay buffer. Final DMSO concentration was […] in assays. Assay buffer was 50 mM Tris pH 7.5 containing 1 mM EGTA (ethylene glycol tetraacetic acid), 1 mM DTT (dithiothreitol), 0.1 mM Na3VO4, 5 mM MgCl2, 0.01% Tween® 20. Assays were carried out in 384 well Alphaplates (Perkin Elmer). Incubations consisted of compound, 25 microM Adenosine-5′-triphosphate (ATP), and 0.2 nM NIK/MAP3K14. Incubations were initiated by addition of GST-tagged NIK/MAP3K14 enzyme, carried out for 1 h at 25° C. and terminated by addition of stop buffer containing anti-phospho-[…] Ser176/180 antibody. Protein A Acceptor and Glutathione-Donor beads were added before reading using an EnVision® Multilabel Plate Reader (Perkin Elmer). Signal obtained in the wells containing blank samples was subtracted from all other wells and IC50's were determined by fitting a sigmoidal curve to % inhibition of control versus Log10 compound concentration.).
Sequence of Mitogen-activated protein kinase kinase kinase 14 (Q99558 whole entry): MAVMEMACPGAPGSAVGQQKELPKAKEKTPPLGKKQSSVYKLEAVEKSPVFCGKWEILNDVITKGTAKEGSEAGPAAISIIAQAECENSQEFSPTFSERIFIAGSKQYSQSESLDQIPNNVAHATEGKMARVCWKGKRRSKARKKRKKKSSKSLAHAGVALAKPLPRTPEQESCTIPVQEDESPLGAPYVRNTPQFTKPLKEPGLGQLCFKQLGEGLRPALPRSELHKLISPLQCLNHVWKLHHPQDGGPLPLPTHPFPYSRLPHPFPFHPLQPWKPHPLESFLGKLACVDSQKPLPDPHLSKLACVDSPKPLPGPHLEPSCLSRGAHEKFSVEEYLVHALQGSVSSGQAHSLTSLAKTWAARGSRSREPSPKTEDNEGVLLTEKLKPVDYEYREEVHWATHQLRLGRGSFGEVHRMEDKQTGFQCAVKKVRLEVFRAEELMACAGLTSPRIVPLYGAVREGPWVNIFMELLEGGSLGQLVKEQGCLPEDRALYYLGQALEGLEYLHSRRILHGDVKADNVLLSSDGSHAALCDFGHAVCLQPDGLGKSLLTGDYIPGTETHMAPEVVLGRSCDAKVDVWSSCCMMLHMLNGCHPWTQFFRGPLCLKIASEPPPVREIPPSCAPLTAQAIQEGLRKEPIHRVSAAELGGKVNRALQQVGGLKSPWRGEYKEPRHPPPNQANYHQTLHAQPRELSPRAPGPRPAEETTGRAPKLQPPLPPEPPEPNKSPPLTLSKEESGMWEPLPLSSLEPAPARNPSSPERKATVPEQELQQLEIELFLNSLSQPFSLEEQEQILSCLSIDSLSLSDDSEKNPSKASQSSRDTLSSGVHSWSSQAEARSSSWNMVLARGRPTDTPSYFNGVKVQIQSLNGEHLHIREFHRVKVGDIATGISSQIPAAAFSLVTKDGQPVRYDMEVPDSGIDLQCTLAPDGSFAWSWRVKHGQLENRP
Compound CC1(C)CNc2c(C#N)cc(-c3ccnc(Nc4cc(Cl)cc5[nH]ccc45)n3)cc21 has an IC50 of 148 nM. In the case of CN1CCc2ncc(Nc3ncc(F)c(-c4cc(C#N)c5c(c4)[C@@](C)(CO)CN5)n3)cc2C1, the IC50 is reported as 4.2 nM. Compound COc1nc2c(cc1Nc1nccc(-c3cc(C#N)c4c(c3)[C@@](C)(CO)CN4)n1)CCN(C)C2 has an IC50 of 1.8 nM.
